The test system of one assay is iNOS. Briefly: Islet iNOS immunoreactivity with dietary taurine supplementation. The format is in vivo, Wistar rats. Conditions: all stages. How it is done:
Animals and diets were prepared as described in Example 8. The pancreas was removed, and the presence of Fas, Fas ligand, inducible nitric oxide synthase (iNOS) and vascular endothelial growth factor (VEGF) were evaluated in pancreatic sections using immunoreactivity.

Assay [1] deals with NOD mice. Description: Onset of diabetes (glucosurea) in female NOD offspring after maternal taurine supplementation. It is filed as in vivo. An excerpt: Pregnant NOD mice were obtained and maintained on a control diet as described in Example 13. Pregnant mice were either supplemented with taurine in the drinking water (n=51) or were unsupplemented (n=37) throughout pregnancy. The supplemented group received taurine at a concentration of 2.5% (w/v) in drinking water. Considering the average amount of water consumed, this is equivalent to a taurine consumption of about 0.75 g/day per animal. Taurine supplementation ceased post-partum, and offspring were allowed to nurse for 21 days. […] Onset of diabetes was determined by the appearance of glucosurea which was assessed using glucose detection sticks.

For assay [2] the following is noted: taurine 0.3 mmol/l or 3 mmol/l; acellular. How it is done: (§1) Nitric oxide is a reactive free radical which leads to peroxynitrite formation, another reactive free radical, by interaction with superoxide (NO+OO^−→ONOO^−). […] Luminol-derived chemiluminescence induced by peroxynitrite produced by the decomposition of sydnonimine (SIN-1) was evaluated to investigate the possibility that taurine quenched the peroxynitrite formed from NO.

Assay [3] relates to islet cells. Description: Islet cell apoptosis with maternal dietary taurine supplementation (TUNEL). The format is in vivo, Wistar rats. On the procedure: Animals and diets were prepared, and taurine supplementation in drinking water was conducted as described in Example 7. Islet cells were cultured and treated as described in Example 1. Islet cell apoptosis was determined using the TUNEL method, as described by […] et al., (Endocrinology 1999;140: 4861-4873). Four developmental stages were evaluated, namely: fetal day 21.5 ([…].5) or post-natal day 12 (PN12), 14 (PN14) or 30 (PN30).

The test system of assay [4] is islet cells. Briefly: Islet cell proliferation with maternal dietary taurine supplementation (BrdU immunostaining). It is filed as in vivo, Wistar rats. How it is done: Adult virgin female Wistar rats were caged overnight with males and copulation was verified the next morning. Animals were maintained at 25° C. with a 10 h-14 h dark-light cycle. Pregnant rats were divided into four groups and fed one of the following isocaloric diets, either with or without taurine supplemented in the drinking water. […] The composition of the basal and low protein diets were described previously by Snoeck et a/.1990 (Biol. Neonate 57, 107-118). The diets were purchased from Hope Farms (Woerden, Holland). Animals in both the groups had free access to water at all times. Animals were divided into four groups to assess various parameters at different time periods. Females were sacrificed at 21.5 days of gestation by decapitation and fetuses were removed in order to evaluate parameters at fetal day 21.5 (F 21.5). Alternatively, animals gave birth and offspring were sacrificed at post-natal day 12, 14 or 30 (PN 12, PN 14, and PN 30, respectively). Bromodeoxyuridine (BrdU) incorporation was evaluated by immunostaining as described by […] et al., (Endocrinology 1999;140: 4861-4873).

The conditions of assay [5]: 3 mmol/l taurine; SIN-1. How it is done: Chemiluminescence measurements. Luminol (5-amino-2,3-dihydro-1-4-phtalazinedione) at 400 μmol/l (Sigma Chemical Co.), taurine (0.3 or 3 mmol/l), methionine (0.1 or 1 mmol/l) and β-alanine (0.3 or 3 mmol/l) stock solutions were prepared in PBS. Sydnonimine (SIN-1), also known as 3-morpholinosydnonimine, a source of peroxynitrite, was purchased from Sigma Chemical Co. SIN-1 was prepared as 100 μmol in 1 mol/l NaOH. A reaction was initiated by simultaneous injection of luminol and SIN-1 into wells containing PBS either alone or with supplemental amino acid levels as noted above. Chemiluminescence emitted by luminol in the presence of peroxynitrite was measured every 30 seconds over 20 minutes in a chemifluorophotometer (MicroLumat LB96P, EG&G BERTHOLD), and was quantified as light intensity (10^8 RLU).
as §1

The test system of the next assay is fetal islet β cells. Description: Global cell death / mortality of cultured fetal islets (ethidium bromide permeability). It is filed as cell-based. Conditions: SNP (100 μmol/l); pre-treated with taurine 0.3 or 3 mmol/l; both diet groups; dose dependent. On the procedure:
Global cell death. Global cell death was analysed using a non-specific staining permeant probe. For this purpose, the culture medium was removed and the dishes were incubated in the dark with 1 ml of 20 μg/ml ethidium bromide for 20 min to stain permeabilized dead cells. The cultures were then fixed with 4% paraformaldehyde in PBS for 10 min, treated with 30% methanol for permeabilization of the remaining of the cells and then mounted in mowiol containing 20 μg/ml of Hoechst 33342, to stain the nuclei.
Physiological and supraphysiological levels of each amino acid were tested. Taurine, if present was either 0.3 mmol/l (physiological) or 3 mmol/l (supraphysiological); methionine, if present was either 0.1 mmol/l (physiological) or 1 mmol/l (supraphysiological); and β-alanine, if present was either 0.3 mmol/l (physiological) or 3 mmol/l (supraphysiological). Supplemental amino acid levels were maintained in the culture medium during SNP treatment. […] Apoptosis was quantified by confocal microscopy using the TUNEL method described in Example 1. Mortality rate was quantified by confocal microscopy using permeant probes, as described in Example 1, to verify quantification of apoptotic rate for both C and LP diet treatments including SNP and taurine.

Assay [6] relates to NOD mice. Briefly: Insulitis in NOD mice at 12 weeks after taurine in maternal drinking water (pregnancy and lactation). It is filed as in vivo. The conditions noted are these: for reduction of incidence of insulitis: 12 weeks of age, vs control animals. An excerpt: Pregnant NOD mice were maintained on a control diet either with or without taurine supplementation in the drinking water throughout pregnancy and lactation. Supplementation of taurine was stopped after weaning. At 12 weeks of age the animals were killed and examined for histological evidence of insulitis within the pancreatic islets. Mice which were examined and found to have evidence of insulitis, were then further scored as peri-islet (slight), less than 50% area of islet (medium) or more than 50% islet area (heavy), as indicative of the stage and/or severity of insulitis.

Regarding `NCCS(=O)(=O)O` [taurine, 2-aminoethylsulfonic acid], in the assay with iNOS, the iNOS immunoreactivity result is “no effect”. The “proportion of female offspring showing diabetes” value in the assay on NOD mice [1] (at 25 weeks, maternal taurine 2.5% (w/v) in drinking water during pregnancy) is on record as “about half”. For the same molecule, the “proportion of taurine-supplemented group still not diabetic” value in the assay with NOD mice [1] (at 50 weeks) is recorded as “about 10%”. Also, the “concentration of NO released in the presence of SNP” value in assay [2] is on record as “not significantly altered”. The islet cell apoptosis entry with islet cells [3] (LP+Taurine vs control group (C), F21.5, PN12, PN14, PN30) is given as “either no difference, or a reduction in apoptosis compared to the control group”; in the assay with islet cells [3] (protein-sufficient (C) animals supplemented with taurine, post-natal days 12 and 14), “reduction in apoptosis”. Moreover, the “β cell proliferation rate (BrdU incorporation)” value in the assay on islet cells [4] (C+Taurine, 2.5% taurine in maternal drinking water) is reported as “did not significantly increase”. In the assay on islet cells [4] (LP+Taurine, 2.5% (weight/volume) taurine in maternal drinking water), the “islet cell proliferation rate (BrdU incorporation)” value is given as “restore the proliferation rate to a level not significantly different from the control diet”. In addition, the “luminol chemiluminescence (peroxynitrite quenching)” value in assay [5] is given as “dramatically decreased”. The “mortality after treatment with SNP, percentage of cell death” value with fetal islet β cells is recorded as “significantly diminished”. In addition, the “proportion of individual islets showing no incidence of insulitis” value in the assay with NOD mice [6] (female animals exhibiting insulitis, C+Taurine (65% in control diet group)) is “approximately 50%”. Also, the “severity of insulitis when it occurs” value in the assay with NOD mice [6] (female mice exhibiting insulitis, 12 weeks) is on record as “not lessened”. In addition, the figures for the “reduction of incidence of insulitis” value in the assay with NOD mice [6] (female mice) and in the assay on NOD mice [6] (male mice) were 80% and 60%, respectively.

These data come from US20030180345A1, “Compositions and methods for inhibiting islet dysfunction and autoimmune disorders” (priority 2000, published 2003).
